Data on five molecules can be found in PMC4871610 (Cell, 2015).

Experiment [1] deals with T1, CutC (choline TMA lyase) (Proteus mirabilis, UniProt B4EYG1).
T1 sequence (B4EYG1 1-1142): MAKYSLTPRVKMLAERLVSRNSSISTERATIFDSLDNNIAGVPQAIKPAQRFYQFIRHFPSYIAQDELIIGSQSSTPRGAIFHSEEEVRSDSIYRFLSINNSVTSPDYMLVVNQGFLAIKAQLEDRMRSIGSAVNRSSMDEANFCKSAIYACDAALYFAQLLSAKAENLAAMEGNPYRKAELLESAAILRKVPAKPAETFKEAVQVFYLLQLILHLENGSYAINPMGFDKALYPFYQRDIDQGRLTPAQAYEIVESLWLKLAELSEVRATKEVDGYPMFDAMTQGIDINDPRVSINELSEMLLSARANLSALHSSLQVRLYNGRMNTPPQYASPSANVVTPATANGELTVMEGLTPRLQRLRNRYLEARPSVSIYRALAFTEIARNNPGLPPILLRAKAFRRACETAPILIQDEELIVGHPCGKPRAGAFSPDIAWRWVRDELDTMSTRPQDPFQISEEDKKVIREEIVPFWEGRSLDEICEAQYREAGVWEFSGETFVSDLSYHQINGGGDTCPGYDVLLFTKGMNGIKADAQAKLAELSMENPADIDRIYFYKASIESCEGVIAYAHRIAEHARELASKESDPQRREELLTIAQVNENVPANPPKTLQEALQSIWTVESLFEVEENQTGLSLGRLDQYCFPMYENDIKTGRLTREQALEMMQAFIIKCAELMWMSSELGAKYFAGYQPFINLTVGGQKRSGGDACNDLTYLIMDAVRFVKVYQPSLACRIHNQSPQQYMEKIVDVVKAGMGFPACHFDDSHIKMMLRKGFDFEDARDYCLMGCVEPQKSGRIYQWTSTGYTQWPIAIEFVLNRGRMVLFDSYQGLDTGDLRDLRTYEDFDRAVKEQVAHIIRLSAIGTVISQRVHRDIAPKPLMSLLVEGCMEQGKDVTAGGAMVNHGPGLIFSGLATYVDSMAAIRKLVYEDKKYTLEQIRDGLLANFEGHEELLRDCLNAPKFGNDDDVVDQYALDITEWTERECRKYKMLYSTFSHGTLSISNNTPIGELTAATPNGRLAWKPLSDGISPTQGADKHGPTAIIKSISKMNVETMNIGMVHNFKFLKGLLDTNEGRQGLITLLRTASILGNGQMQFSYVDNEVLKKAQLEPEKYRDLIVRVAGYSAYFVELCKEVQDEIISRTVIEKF
T1 sequence (B4EYG0 1-316 partner): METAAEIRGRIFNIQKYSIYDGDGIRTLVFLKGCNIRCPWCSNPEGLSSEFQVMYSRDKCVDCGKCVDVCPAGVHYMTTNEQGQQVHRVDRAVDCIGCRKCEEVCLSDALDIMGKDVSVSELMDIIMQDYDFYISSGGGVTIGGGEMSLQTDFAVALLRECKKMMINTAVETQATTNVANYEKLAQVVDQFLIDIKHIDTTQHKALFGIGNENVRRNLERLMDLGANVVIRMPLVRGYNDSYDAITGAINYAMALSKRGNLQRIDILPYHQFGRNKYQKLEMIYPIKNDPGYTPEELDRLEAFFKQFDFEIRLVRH
As to the kind of experiment: d9-TMA production from d9-choline in cutC/D-transformed E. coli lysate. The experiment is classed as cell-based.

For experiment [2], the target named is T1, CutC (choline TMA lyase). As to the kind of experiment: d9-TMA production from d9-choline in cutC/D-transformed E. coli lysate, LC/MS/MS. It is filed as biochemical.
For experiment [3], the target named is T1, CutC (choline TMA lyase). In words: anaerobic d9-TMA production with purified CutC and CutD, LC/MS/MS. The experiment is classed as biochemical.
Experiment [4] addresses T1, CutC (choline TMA lyase). In words: d9-TMA production by purified CutC and CutD, LC/MS/MS. It is filed as biochemical.
For another experiment, the target named is T2, YeaW (Escherichia coli, UniProt P0ABR7).
T2 sequence (P0ABR7 1-374): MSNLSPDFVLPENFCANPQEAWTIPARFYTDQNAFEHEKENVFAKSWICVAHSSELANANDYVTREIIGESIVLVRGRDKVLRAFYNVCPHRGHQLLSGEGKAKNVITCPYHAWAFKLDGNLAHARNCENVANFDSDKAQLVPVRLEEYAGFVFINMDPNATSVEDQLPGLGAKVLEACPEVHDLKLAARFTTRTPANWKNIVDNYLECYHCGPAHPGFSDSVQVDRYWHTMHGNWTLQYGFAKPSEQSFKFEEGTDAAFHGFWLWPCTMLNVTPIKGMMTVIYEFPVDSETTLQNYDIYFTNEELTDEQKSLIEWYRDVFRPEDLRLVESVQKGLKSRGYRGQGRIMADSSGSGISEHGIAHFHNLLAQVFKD
In words: d9-TMA production by purified YeaW/X, LC/MS/MS. It is filed as biochemical.

pIC50: −log10 of the molar value.

As to `C[P+](C)(C)CCO` [P-choline, (2-Hydroxyethyl)(trimethyl)phosphonium], the “d9-TMA production from d9-choline in cutC/D-transformed E. coli lysate (activity)” value at CutC (choline TMA lyase) [1] is “phosphonium analogue of choline (P-choline) showed a unique effect by augmenting cutC/D choline TMA lyase activity”. As a reminder, the pIC50 is the IC50 on a negative log10 scale, so that one unit is a factor of ten. A higher pIC50 goes with a low IC50. As to `C[Si](C)(C)CCO` [TMSi-ETOH, 2-(trimethylsilyl)ethanol], on CutC (choline TMA lyase) [2], the negative logarithm of the IC50 (pIC50) was approximately 5.00.

The molecule `CC(C)(C)CCO` [DMB, 3,3-dimethyl-1-butanol] showed a pIC50 against CutC (choline TMA lyase) [3] of approximately 5.00.

Take `C[N+](C)(C)CCO` [choline]: the “d9-TMA production by purified CutC and CutD, LC/MS/MS” value at CutC (choline TMA lyase) [4] was “both purified polypeptides showed dose-dependent inhibition in TMA production from either choline or GPC substrates”. Consider `C[N+](C)(C)CC(O)CC(=O)[O-]` (centres unmarked) [carnitine], for which the “d9-TMA production by purified YeaW/X, LC/MS/MS” value on YeaW is “Purified YeaW/X showed enzymatic cleavage of d9-carnitine”.
